Structures are written as SMILES.

This note sets out measurements from patent publication US20140377201A1, “SKIN-WHITENING COMPOSITION CONTAINING EXTRACTS FROM TREES INCLUDING PAPER MULBERRY” (Amorepacific Corporation, priority 2010, published 2014).

The test system of assay [1] is B16/F10 melanoma cells. The experiment in a line: Melanin production inhibitory activity using B16/F10 melanoma cells. The assay is classed as cell-based. To be noted: 50 μg/ml of arbutin; incubated for 3 days; absorbance at 405 nm. On the procedure: Samples, containing 0.001 wt % of each of the extracts of Examples 1 to 9 and Comparative Examples 1 to 3, and 50 /μg/ml of arbutin, were used as test materials. Each of the test materials was added to a culture of B16/F10 melanoma cells (Korean Cell Line Bank) at a given concentration and incubated for 3 days. The medium as removed, and the cells were washed with PBS and lysed with 1N NaOH, and the absorbance at 405 nm was measured. As a control, cells to which no test material was added were used. The skin whitening effects of the test materials were measured by measuring the melanin production inhibitory activity of each test material in comparison with the content of melanin in the control. Melanin production inhibition (%) was calculated using the following equation 2, and the calculation results are shown in Table 2 below.
Melanin production inhibition (%)=100−(absorbance of each test material/absorbance of control)×100 [Equation 2]

Assay [2] relates to tyrosinase (SIGMA) extracted from mushrooms. Put plainly: Tyrosinase inhibitory effect. It counts as biochemical. To be noted: positive control, 40 μg/ml of kojic acid; substrate tyrosine; 37° C.; absorbance at 475 nm. The protocol: The enzyme tyrosinase used in this Test Example was a tyrosinase (SIGMA) extracted from mushrooms. First, the substrate tyrosine was dissolved in distilled water at a concentration of 0.3 mg/ml, and 1.0 ml of the solution was placed in each test tube. Then, 1.0 ml of potassium-phosphate buffer (0.1 M, pH 6.8) and 0.7 ml of distilled water were added thereto, thereby preparing a mixed solution. […] Then, the test tube containing the reaction solution was quenched in ice water to stop the reaction, and the absorbance at 475 nm was measured with a photoelectric spectrophotometer. Then, the tyrosinase inhibitory activity of each of the extracts was calculated using the following equation 1, and the results of the calculation are shown in Table 1 below. Tyrosinase inhibition (%)=100−(absorbance of each extract/absorbance of control×100 [Equation 1]

Consider `OC[C@H]1O[C@@H](Oc2ccc(O)cc2)[C@H](O)[C@@H](O)[C@@H]1O` [Arbutin, arbutin], for which, in assay [1], the “Melanin production inhibition (%)” value is listed as 48%.

`O=c1cc(CO)occ1O` [Kojic acid, kojic acid]: in assay [2], the “Tyrosinase inhibition (%)” value is 51%.
